Five molecules from patent US20250121013A1, “USE OF BACILLUS AMYLOLIQUEFACIENS FOR PREVENTING AND TREATING PARKINSON'S DISEASE” (Artugen Therapeutics Ltd., priority 2021, published 2025) can be followed below.

Usually MIC stands for the least concentration at which growth counts as inhibited.

Converted amounts (≈) assume the structure as drawn.

Assay [1] deals with MPTP-induced model of PD. Description: MPTP-induced mouse model of PD, striatal dopamine and DOPAC (Example 1). The format is in vivo. The protocol: • Route(s) of administration: IP for MPTP (1-Methyl-4-phenyl-1,2,3,6-tetrahydropyridine hydrochloride) and vehicle, PO for ART24 and vehicle (trehalose) • Dose Volume(s): 10 mL/kg for MPTP, 0.1 mL for ART24 • Formulation(s): PBS for MPTP; saline-based formulation for ART24 • Dose Levels: 20 mg/kg for MPTP, for ART24 • Dose Frequency: 4 doses (QD) for MPTP; 11 days BID for ART24 • Study duration: 11 days • Number of Groups: 4 • Number of animals per group: 13 • Total number of animals: 52 (57 animals were enrolled in the study)
MPTP model. MPTP was formulated in phosphate buffered saline (PBS) and administered to mice QD for 4 days at a dose of 20 mg/kg (2 mg/mL delivered as 10 mL/kg).
Neurotransmitter measurements (DA and DOPAC). 10 mice from each were anesthetized and blood collected into K2EDTA tubes by a cardiac puncture. Brains were extracted and dissected. The rostral part was dissected and striata removed. The striata were frozen and subsequently evaluated for levels of dopamine and metabolites.
Striata were homogenized in 0.3M perchloric acid. The resulting supernatant was analyzed for levels of monoamines by reverse phase HPLC-ECD.
Data analysis. Data were analyzed using a two-way repeated measures ANOVA with a post hoc Fisher's LSD multiple comparison test. The raw data were also analyzed for outliers using ROUT method (Q=1%). GraphPad Prism 9 was used for data analysis and presentation.

Assay [2] has as its system ART24. Nature of the assay: Antibiotic susceptibility of ART24, MIC, VetMIC panels (Table 2). The assay is classed as cell-based, Bacillus amyloliquefaciens. Conditions: 24 hr at 37° C., average results from N = 6; for MIC: Bacillus amyloliquefaciens, read-out: ART24 MIC. The method, then:
The minimum inhibitory concentration (MIC) of the listed antimicrobials is expressed as μg/mL. […] The wells of the prefabricated 96-well plates were filled with 100 μL of the final suspension. The plates were sealed with an […], Sigma Aldrich) sealing film (to facilitate growth of the aerobic Bacillus. The plates were then incubated for 24 hr at 37° C. The results are recorded after 24 hours as the lowest concentration of the antibiotic to inhibit visible growth. The prefabricated panels […], Uppsala, Sweden) comprising the antibiotics ampicillin, vancomycin, gentamicin, kanamycin, streptomycin, erythromycin, clindamycin, tetracycline, chloramphenicol, neomycin, penicillin, quinupristin-dalfopristin, linezolid, trimethoprim, ciprofloxacin and rifampicin were used.

The test system of assay [3] is ART24. Nature of the assay: Antibiotic susceptibility of ART24 lots and cell banks, MIC following EFSA testing recommendations (Table 3). Conditions: for MIC: Bacillus amyloliquefaciens. The assay is classed as cell-based, Bacillus amyloliquefaciens. The method, then:
The minimum inhibitory concentration (MIC) of the listed antimicrobials is expressed as μg/mL. Additional studies following EFSA testing recommendations were performed on lyophilized ART24 lots CO-33-10A2 and CO-33-12A2 and Research and Master Cell Banks CO-33-ART24 BHI and CO-33-ART24 SYD, and those results are shown in Table 3.

Assay [4] deals with MPTP-induced model of PD. Description: Locomotion activity in MPTP zebrafish model (Example 6). The assay is classed as in vivo. Conditions: larvae; MPTP 250 μM 96 to 120 hpf; ART24 4×10^6 CFU/mL in water of MPTP-exposed fish; 50 min alternating dark/light. The method, then: Zebrafish larvae were dosed with MPTP (250 μM; 96 to 120 hours post fertilization) or sham treated (DMSO only; n=22) in water. ART24 was dosed in water of MPTP-exposed fish (4×10^6 CFU/mL; n=16). Movement was evaluated with an imaging system during 50 min of testing consisting of 10-min periods of alternating darkness/bright light. Data was analyzed by one-way ANOVA followed by a Dunnet test comparing against MPTP treatment.

Where [5] appears, read: compared to saline/MPTP dosed animals, PO BID Day -3 to Day 7, MPTP 20 mg/kg IP QD 4 days, n=10/group.
Where [6] appears, read: ART24 source: cell bank CO-33 ART 24 BHI.
[7] abbreviates: ART24 source: cell bank CO-33 ART 024 SYD.
[8] abbreviates: ART24 source: lyophilized lot CO-33-10A2.
[9] abbreviates: ART24 source: lyophilized lot CO-33-12A2.
The mark [10] stands for this setting: ART24 source: cell bank CO-33 ART 24 BHI, read-out: MIC, CO-33 ART 24 BHI.
The mark [11] stands for this setting: ART24 source: cell bank CO-33 ART 024 SYD, read-out: MIC, CO-33 ART 024 SYD.
The mark [12] stands for this setting: ART24 source: lyophilized lot CO-33-10A2, read-out: MIC, CO-33-10A2.
[13] abbreviates: ART24 source: lyophilized lot CO-33-12A2, read-out: MIC, CO-33-12A2.
Setting [14] is: MPTP 20 mg/kg IP QD 4 days compared to saline/vehicle treated animals.

Take `OC[C@H]1O[C@H](O[C@H]2O[C@H](CO)[C@@H](O)[C@H](O)[C@H]2O)[C@H](O)[C@@H](O)[C@@H]1O` [trehalose]: in the assay on MPTP-induced model of PD [1] (setting [5]), the “DOPAC concentration in the striatum” value is “did not produce a significant effect” and the “dopamine concentration in the striatum” value is “did not produce a significant effect”.
In the case of `CO[C@H]1/C=C/O[C@@]2(C)Oc3c(C)c(O)c4c(O)c(c(/C=N/N5CCN(C)CC5)c(O)c4c3C2=O)NC(=O)/C(C)=C\C=C\[C@H](C)[C@H](O)[C@@H](C)[C@@H](O)[C@@H](C)[C@H](OC(C)=O)[C@@H]1C` [Rifampicin], the MIC worked out at 0.5 µg/mL (≈ 0.608 µM) in the assay with ART24 [2]; 0.25 µg/mL (≈ 0.304 µM) with ART24 [3] (setting [10]); 0.25 µg/mL (≈ 0.304 µM) in the assay with ART24 [3] (setting [11]); 0.25 µg/mL (≈ 0.304 µM) with ART24 [3] (setting [12]); 0.25 µg/mL (≈ 0.304 µM) in the assay on ART24 [3] (setting [13]). Moreover, the “MIC interpretation, CO-33 ART 24 BHI” value in the assay on ART24 [3] (setting [6]) is on record as “S”. Also, the “MIC interpretation, CO-33 ART 024 SYD” value against ART24 [3] (setting [7]) is “S”. In addition, the “MIC interpretation, CO-33-10A2” value against ART24 [3] (setting [8]) is reported as “S”. Also, the “MIC interpretation, CO-33-12A2” value in the assay on ART24 [3] (setting [9]) is “S”.
For `CN1CC=C(c2ccccc2)CC1.Cl` [MPTP, 1-Methyl-4-phenyl-1,2,3,6-tetrahydropyridine hydrochloride], in the assay with MPTP-induced model of PD [1] (setting [14]), the “DOPAC content in the striatum” value is “significant depletion” and the “dopamine content in the striatum” value is “significant depletion”. The “total motor movement distance” value in the assay on MPTP-induced model of PD [4] is given as 24 % of sham.
Take `O=C(O)c1cn(C2CC2)c2cc(N3CCNCC3)c(F)cc2c1=O` [Ciprofloxacin]: the MIC with ART24 [2] is not above 0.25 µg/mL; with ART24 [3] (setting [10]), not above 0.03 µg/mL; in the assay on ART24 [3] (setting [11]), not above 0.03 µg/mL; with ART24 [3] (setting [12]), not above 0.03 µg/mL; in the assay on ART24 [3] (setting [13]), not above 0.03 µg/mL. Further, the “MIC interpretation, CO-33 ART 24 BHI” value in the assay with ART24 [3] (setting [6]) is “S”. Moreover, the “MIC interpretation, CO-33 ART 024 SYD” value in the assay with ART24 [3] (setting [7]) was “S”. Moreover, in the assay with ART24 [3] (setting [8]), the “MIC interpretation, CO-33-10A2” value is “S”. In the assay on ART24 [3] (setting [9]), the “MIC interpretation, CO-33-12A2” value was “S”.
As for Quinupristin-dalfopristin, the “ART24 MIC” value in the assay with ART24 [2] came out at 4 µg/mL. Besides, in the assay with ART24 [3] (setting [6]), the “MIC, CO-33 ART 24 BHI” value came to 2 mg/L. Besides, in the assay on ART24 [3] (setting [7]), the “MIC, CO-33 ART 024 SYD” value is 2 mg/L. Moreover, the “MIC, CO-33-10A2” value against ART24 [3] (setting [8]) came out at 1 mg/L. Moreover, the “MIC, CO-33-12A2” value in the assay with ART24 [3] (setting [9]) came out at 2 mg/L.
